# Test results taken from ChEMBL document CHEMBL4028802, “DILIrank: the largest reference drug list ranked by the risk for developing drug-induced liver injury in humans” (Drug Discov Today, 2016).
# Legend:
# Homo sapiens [1] = species: Homo sapiens; assay: Liver toxicity in human assessed as induction of drug-induced liver injury by measuring severity class index
# Homo sapiens [2] = species: Homo sapiens; assay: Liver toxicity in human assessed as induction of drug-induced liver injury by measuring verified drug-induced liver injury concern status
# For DILI severity class in this document: key of the grades not given here.
Molecule,DILI_severity_class (Homo sapiens [1]),DILI_Concern (Homo sapiens [2])
CN1C(CCl)Nc2cc(Cl)c(S(N)(=O)=O)cc2S1(=O)=O (configuration not stated) [METHYCLOTHIAZIDE],2,Ambiguous-Dili-Concern
C=C1[C@H](CO)[C@@H](O)C[C@@H]1n1cnc2c(=O)[nH]c(N)nc21.O,7,Ambiguous-Dili-Concern
COc1cc(C(C)=O)ccc1OCCCN1CCC(c2noc3cc(F)ccc23)CC1 [ILOPERIDONE],2,Ambiguous-Dili-Concern
CCC1(c2ccccc2)C(=O)NC(=O)NC1=O [PHENOBARBITAL],3,Less-Dili-Concern
POLYMYXIN B SULFATE,0,No-Dili-Concern
Nc1ccc(C(=O)NCC(=O)O)cc1 [AMINOHIPPURIC ACID],0,No-Dili-Concern
CC(C)NCC(O)c1cc(O)cc(O)c1 (configuration not stated) [METAPROTERENOL],0,No-Dili-Concern
Cn1c(=O)c2c(ncn2C)n(C)c1=O [CAFFEINE],0,No-Dili-Concern
C#C[C@]1(O)CC[C@H]2[C@@H]3CCC4=Cc5oncc5C[C@]4(C)[C@H]3CC[C@@]21C [DANAZOL],8,Most-Dili-Concern
Cc1ccc(S(=O)(=O)NC(=O)NN2CCCCCC2)cc1 [TOLAZAMIDE],2,Less-Dili-Concern
CC(COc1ccccc1)NN (configuration not stated) [PHENOXYPROPAZINE],8,Most-Dili-Concern
CN(C)CC(c1ccc(O)cc1)C1(O)CCCCC1 (configuration not stated) [DESVENLAFAXINE],3,Less-Dili-Concern
CC1=C(CC(=O)O)c2cc(F)ccc2/C1=C\c1ccc([S+](C)[O-])cc1 (configuration not stated),8,Most-Dili-Concern
CCC(=O)C(CC(C)N(C)C)(c1ccccc1)c1ccccc1 (configuration not stated) [METHADONE],3,Ambiguous-Dili-Concern
Cc1ccc(Cl)c(Nc2ccccc2C(=O)O)c1Cl [MECLOFENAMIC ACID],3,Ambiguous-Dili-Concern
COC(=O)[C@H]1[C@H]2C[C@@H]3c4[nH]c5cc(OC)ccc5c4CCN3C[C@H]2C[C@@H](OC(=O)c2cc(OC)c(OC)c(OC)c2)[C@@H]1OC [RESERPINE],0,No-Dili-Concern
C[C@@H]1C[C@H]2[C@@H]3CCC4=CC(=O)C=C[C@]4(C)[C@@]3(F)[C@@H](O)C[C@]2(C)[C@@]1(O)C(=O)CO [DEXAMETHASONE],3,Ambiguous-Dili-Concern
C[N+]1(C)CCC(OC(=O)C(O)(c2ccccc2)C2CCCC2)C1 (configuration not stated) [GLYCOPYRRONIUM],0,No-Dili-Concern
CC(=O)OCC(=O)[C@@]1(O)CC[C@H]2[C@@H]3CCC4=CC(=O)CC[C@]4(C)[C@H]3C(=O)C[C@@]21C [CORTISONE ACETATE],0,No-Dili-Concern
CCC(=O)NCC[C@@H]1CCc2ccc3c(c21)CCO3 [RAMELTEON],0,No-Dili-Concern
C#C[C@]1(O)CC[C@H]2[C@@H]3CCC4=CC(=O)CC[C@@H]4[C@H]3CC[C@@]21CC [LEVONORGESTREL],0,No-Dili-Concern

Molecule,DILI_severity_class (Homo sapiens [1]),DILI_Concern (Homo sapiens [2])
COC[C@@H](NC(C)=O)C(=O)NCc1ccccc1 [LACOSAMIDE],3,Ambiguous-Dili-Concern
CN1CCN(C2=Nc3ccccc3Oc3ccc(Cl)cc32)CC1 [LOXAPINE],5,Ambiguous-Dili-Concern
C=CC1=C(C(=O)O)N2C(=O)[C@@H](NC(=O)/C(=N\OCC(=O)O)c3csc(N)n3)[C@H]2SC1 [CEFIXIME],4,Ambiguous-Dili-Concern
CN(C)c1nc(N(C)C)nc(N(C)C)n1 [ALTRETAMINE],2,Ambiguous-Dili-Concern
O=C1Nc2ccc(Cl)cc2C(c2ccccc2Cl)=NC1O (configuration not stated) [LORAZEPAM],3,Ambiguous-Dili-Concern
C[C@]12CC[C@@H]3c4ccc(O)cc4CC[C@H]3[C@@H]1CCC2=O [ESTRONE],2,Ambiguous-Dili-Concern
N[C@@H]1CON=C1O [CYCLOSERINE],3,Ambiguous-Dili-Concern
Nc1nc(Cl)nc2c1ncn2[C@@H]1O[C@H](CO)[C@@H](O)[C@@H]1F [CLOFARABINE],8,Ambiguous-Dili-Concern
C[C@]12COC(=O)C[C@@H]1CC[C@@H]1[C@@H]2CC[C@@]2(C)[C@H]1CC[C@]2(C)O [OXANDROLONE],8,Most-Dili-Concern
NC(=O)NO [HYDROXYUREA],8,Most-Dili-Concern
C[C@H]1c2cccc(O)c2C(=O)C2=C(O)[C@]3(O)C(=O)C(C(N)=O)=C(O)[C@@H](N(C)C)[C@@H]3[C@@H](O)[C@@H]21.O [DOXYCYCLINE],3,Less-Dili-Concern
CC(C)(O/N=C(\C(=O)N[C@@H]1C(=O)N2C(C(=O)[O-])=C(C[n+]3ccccc3)CS[C@H]12)c1csc(N)n1)C(=O)O [CEFTAZIDIME],3,Less-Dili-Concern
C[C@@H]1O[C@@H]1P(=O)(O)O [FOSFOMYCIN],6,Less-Dili-Concern
CN(C)CCOC(C)(c1ccccc1)c1ccccn1 (configuration not stated) [DOXYLAMINE],0,No-Dili-Concern
CCOc1nc2cccc(C(=O)O)c2n1Cc1ccc(-c2ccccc2-c2nnn[nH]2)cc1,3,Less-Dili-Concern
O.O=P(O)(O)C(O)(Cn1ccnc1)P(=O)(O)O [ZOLEDRONIC ACID],0,Less-Dili-Concern
CNC(=C[N+](=O)[O-])NCCSCc1ccc(CN(C)C)o1 [RANITIDINE],5,Less-Dili-Concern
C=C1/C(=C\C=C2/CCC[C@]3(C)[C@@H]([C@H](C)CCCC(C)(C)O)CC[C@@H]23)C[C@@H](O)C[C@@H]1O [CALCITRIOL],0,No-Dili-Concern
O=C(O)c1cc(-c2ccccc2)nc2ccccc12 [CINCHOPHEN],8,Most-Dili-Concern
O=P(O)(O)C(O)(Cc1cccnc1)P(=O)(O)O [RISEDRONIC ACID],3,Ambiguous-Dili-Concern
CO[C@H]1C[C@@H]2CC[C@@H](C)[C@@](O)(O2)C(=O)C(=O)N2CCCC[C@H]2C(=O)O[C@H]([C@H](C)C[C@@H]2CC[C@@H](OCCO)[C@H](OC)C2)CC(=O)[C@H](C)/C=C(\C)[C@@H](O)[C@@H](OC)C(=O)[C@H](C)C[C@H](C)/C=C/C=C/C=C/1C [EVEROLIMUS],4,Ambiguous-Dili-Concern

Molecule,DILI_severity_class (Homo sapiens [1]),DILI_Concern (Homo sapiens [2])
C[C@]12C=CC(=O)C=C1CC[C@@H]1[C@@H]2[C@@H](O)C[C@@]2(C)[C@H]1CC[C@]2(O)C(=O)CO [PREDNISOLONE],3,Less-Dili-Concern
Cc1ccc(O)c([C@H](CCN(C(C)C)C(C)C)c2ccccc2)c1 [TOLTERODINE],0,No-Dili-Concern
VITAMIN E,0,No-Dili-Concern
CC1=C(/C=C/C(C)=C/C=C/C(C)=C/CO)C(C)(C)CCC1 [RETINOL],3,Less-Dili-Concern
CCn1cc(C(=O)O)c(=O)c2cc(F)c(N3CCNCC3)cc21 [NORFLOXACIN],3,Less-Dili-Concern
O=C(O[C@@H]1C[C@@H]2C[C@H]3C[C@H](C1)N2CC3=O)c1c[nH]c2ccccc12 [DOLASETRON],3,Ambiguous-Dili-Concern
BLEOMYCIN,3,Ambiguous-Dili-Concern
O=C(O[C@H]1C[C@H]2CC[C@@H](C1)[N+]21CCCC1)C(O)(c1ccccc1)c1ccccc1.[Cl-] [TROSPIUM CHLORIDE],0,No-Dili-Concern
CN[C@@H](C)[C@H](O)c1ccccc1 [EPHEDRINE],0,No-Dili-Concern
CN1CC[C@]23c4c5ccc(O)c4O[C@H]2C(=O)CC[C@H]3[C@H]1C5 [HYDROMORPHONE],3,Ambiguous-Dili-Concern
C[C@@H](c1ncncc1F)[C@](O)(Cn1cncn1)c1ccc(F)cc1F [VORICONAZOLE],8,Most-Dili-Concern
COc1cc(NCc2ccc3nc(N)nc(N)c3c2C)cc(OC)c1OC [TRIMETREXATE],3,Ambiguous-Dili-Concern
Cc1cc(Br)c(O)c2ncccc12 [TILBROQUINOL],8,Most-Dili-Concern
CC(C)NCC(O)COc1cccc2ccccc12 (configuration not stated) [PROPRANOLOL],3,Ambiguous-Dili-Concern
CC(C)NCC(O)c1ccc(O)c(O)c1 (configuration not stated) [ISOPROTERENOL],0,No-Dili-Concern
CCOC(=O)[C@H](CCc1ccccc1)N[C@@H](C)C(=O)N1Cc2cc(OC)c(OC)cc2C[C@H]1C(=O)O [MOEXIPRIL],3,Ambiguous-Dili-Concern
NC(=O)CC[C@@H]1NC(=O)[C@H](Cc2ccccc2)NC(=O)[C@H](Cc2ccc(O)cc2)NC(=O)[C@@H](N)CSSC[C@@H](C(=O)N2CCC[C@H]2C(=O)N[C@@H](CCCN=C(N)N)C(=O)NCC(N)=O)NC(=O)[C@H](CC(N)=O)NC1=O [VASOPRESSIN],0,No-Dili-Concern
Cc1oncc1C(=O)Nc1ccc(C(F)(F)F)cc1 [LEFLUNOMIDE],8,Most-Dili-Concern
O=C(O)CCCc1ccc(N(CCCl)CCCl)cc1 [CHLORAMBUCIL],3,Less-Dili-Concern
